Data: publication PMC5356443, “Structural, mechanistic and functional insight into gliotoxin bis-thiomethylation in Aspergillus fumigatus” (Open Biology, 2017)

What was measured:
[1] = target: GtmA (gliotoxin S-methyltransferase, TmtA) (Aspergillus fumigatus, UniProt Q4X158); assay: RP-HPLC methyltransferase assay with purified enzyme, Km determination; assay type: biochemical
[2] = test system: [H][C@]12C(=CC=C[C@@H]1O)C[C@@]1(S)C(=O)N(C)[C@@](S)(CO)C(=O)N12; assay: as above; assay type: biochemical, Aspergillus fumigatus; details: SAM

Chain of GtmA (gliotoxin S-methyltransferase, TmtA) (Q4X158 whole entry): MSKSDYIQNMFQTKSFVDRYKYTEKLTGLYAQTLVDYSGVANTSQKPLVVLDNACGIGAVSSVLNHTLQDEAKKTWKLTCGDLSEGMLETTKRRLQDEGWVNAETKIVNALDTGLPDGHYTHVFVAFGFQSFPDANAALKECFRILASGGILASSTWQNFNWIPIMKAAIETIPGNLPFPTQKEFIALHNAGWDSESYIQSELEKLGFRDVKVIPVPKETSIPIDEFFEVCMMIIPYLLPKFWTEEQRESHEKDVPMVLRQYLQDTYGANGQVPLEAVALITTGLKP

Row | Compound | Km [1] [µM] | Km [2] [µM]
1 | CS[C@@]12CC3=CC=C[C@H](O)[C@H]3N1C(=O)[C@](S)(CO)N(C)C2=O [MmGT, monomethylgliotoxin] | 184 | –
2 | GtmA (gliotoxin S-methyltransferase, TmtA) (Aspergillus fumigatus Af293) | – | 38.62
